Experimental data: the NIST ThermoML archive (doi:10.1021/acs.jced.9b00278)
Numbers after ± are expanded uncertainties.

Conditions: DSC

Triple point temperature (Crystal 1): 410.95 ± 2.1 K
Triple point temperature (Metastable crystal): 409.15 ± 2.1 K
SMILES: O=C(O)c1ccccc1Nc1cccc(C(F)(F)F)c1 [2-[[3-(trifluoromethyl)phenyl]amino]benzoic acid]
